# From paper PMC9822434, “Estradiol-Based Salicylaldehyde (Thio)Semicarbazones and Their Copper Complexes with Anticancer, Antibacterial and Antioxidant Activities” (Molecules, 2022)
# Read-outs that look alike come from different tables or passages of the source.
# How the values were obtained:
# [1] = DPPH free radical scavenging assay; conditions: for % Scavenging Effect: DPPH:compound = 1:1 ratio after 30 min, ethanol; for % Scavenging Effect / TEAC (Trolox equivalent antioxidant capacity): 25 °C; for IC50: in ethanol, T = 25 °C, cDPPH = 50 µM, ccompound = 5−50 µM; for TEAC (Trolox equivalent antioxidant capacity): DPPH assay in ethanol
# Description: The DPPH (Sigma-Aldrich) free radical scavenging capacity was studied at 25.0 ± 0.1 °C on an Agilent Cary 3500 spectrophotometer with tightly closed tandem cuvette according to our approach with some modifications. The stock solution of DPPH (100 µM) was prepared in ethanol, and 0.5 mL of this solution was added to one pocket of the cuvette and 0.5 mL of the tested compound in different concentrations in ethanol was added to another. The final concentration of the studied compounds was in the range 5–50 µM, where for DPPH concentration, it was always 50 µM. A standard compound Trolox (Sigma-Aldrich) was used as a positive control. The percentage of the antioxidant activity (AA), IC50 values (the concentration of compound at which it reduced 50% of DPPH) and Trolox equivalent antioxidant capacity (TEAC) were calculated.
# [2] = system: S. aureus ATCC 25928; assay: MIC determination; format: cell-based, Staphylococcus aureus; conditions: Gram-positive S. aureus ATCC 25928; Mueller Hinton Broth
# Description: (§1) Klebsiella pneumoniae (ATCC 49619), Escherichia coli (ATCC 25922), Staphylococcus aureus (ATCC 25928) and Enterococcus faecalis (ATCC 29212) strains were used as Gram-negative and Gram-positive bacterial cultures. The stock solutions of the tested compounds (dissolved in 90% (v/v) DMSO/H2O at 10 mM concentration) were diluted in 100 μL of Mueller Hinton Broth, and then two-fold serial dilutions were performed. As a starting point, 100 μM concentration of the compounds was used. Then, 10^−4 dilution of an overnight bacterial culture in 100 μL of medium was added to each well, with the exception of the medium control wells. Minimum inhibitory concentration (MIC) values of compounds were determined according to our previous work.
# [3] = system: A549; assay: MTT cytotoxicity assay; format: cell-based, human; conditions: for IC50: 24 h incubation time
# Description: (§2) To test the biological effects of the Cu(II) complexes and the ligands on human cancer cells, DU-145 prostate, A549 lung, and MCF-7 breast adenocarcinoma cells, as well as the multidrug-resistant MCF-7 KCR breast cancer cells were utilized. All the cell lines were maintained in RPMI-1640 media (Biosera, Nuaille, France) complemented with 10% fetal bovine serum (FBS), 2 mM L-glutamine, 0.01% streptomycin and 0.005% penicillin, (Biosera, Nuaille, France) and were cultured under standard conditions in a 37 °C incubator at 5% CO2 and 95% humidity. The cell lines were originally obtained from ATCC.
# (§3) The effect of the complexes and of their ligands alone on the viability (on the metabolic activity) of human cancer cells was assessed by MTT assay. The tested compounds were dissolved in 90% (v/v) DMSO/H2O at 10 mM concentration. Equimolar solutions of the ligand CuCl2 salt were used for the cytotoxicity assays. The metal salts without ligands were also tested. For this, 1 × 10^4 cells/well were seeded into 96-well plates and left to grow overnight. On the following day, cells were exposed to increasing concentrations of each compound (0; 2.5; 5; 10; 15; 20 µM). After a 24 h incubation, cells were washed with PBS buffer and then incubated with 0.5 mg/mL MTT (Sigma-Aldrich, St Louis, Missouri, MO, USA) for 1 h at 37 °C. The formazan crystals were solubilized in DMSO (Molar Chemicals, Halásztelek, Hungary), and the absorbance of samples was determined at 570 nm using a Synergy HTX plate reader (BioTek, Winooski, Vermont, VT, USA). Absorption corresponding to the untreated control samples was considered as 100%.
# [4] = system: MCF-7 KCR; assay: MTT cytotoxicity assay; format: cell-based, human; conditions: for IC50: 24 h incubation time
# Description: as §2, §3
# [5] = system: DU-145; assay: MTT cytotoxicity assay; format: cell-based, human; conditions: DU-145, MTT; for IC50: 24 h incubation time
# Description: as §2, §3
# [6] = system: MCF-7; assay: MTT cytotoxicity assay; format: cell-based, human; conditions: MCF-7, MTT; for IC50: 24 h incubation time
# Description: as §2, §3
# [7] = direct redox reaction of the Cu(II) complexes with ascorbic acid (UV–vis, anaerobic); format: physicochemical; conditions: Cu(II) complex 25 µM, 50 equiv. ascorbic acid, pH 7.4, 30% (v/v) DMSO/H2O
# Description: (§4) The redox reaction of the Cu(II) complexes with GSH and ascorbic acid was studied at 25.0 ± 0.1 °C, at pH 7.40 (10 mM HEPES with 0.1 M KCl) on an Agilent Cary 8454 diode array spectrophotometer using a special, tightly closed tandem cuvette (Hellma Tandem Cell, 238-QS). The complex and the reducing agent were separated until the reaction was triggered. Both isolated pockets of the tandem cuvette were completely deoxygenated by bubbling argon for 10 min before mixing the reactants. Spectra were recorded before and then immediately after the mixing, and changes were followed till no further absorbance change was observed. The stock solutions of the reducing agents and the complexes were freshly prepared every day.
# [8] = cyclic voltammetry of Cu(II)-(T)SC (1:1) systems; format: physicochemical; conditions: 90% (v/v) DMSO/H2O, pH 7.40 (10 mM HEPES), 10 mV/s, 25 °C, I = 0.1 M (nBu4NPF6)
# Description: Cyclic voltammograms of TSCs derivatives and their Cu(II) complexes at 25.0 ± 0.1 °C were recorded. nBu4NPF6 was used as a supporting electrolyte, and measurements were performed at pH 7.4. The complexes were obtained by mixing the ligand dissolved in DMSO with aqueous solution of CuCl2 in 1:1 ratio. The final concentration of stock was 1 mM. Measurements were performed on a conventional three-electrode system under argon atmosphere using an Autolab PGSTAT 204 potentiostat/galvanostat monitored with Metrohm’s Nova software. Samples were purged for 10 min with argon before recording the cyclic voltammograms. Platinum electrode was used as the working and auxiliary electrode and Ag/AgCl/3 M KCl as the reference electrode. The electrochemical system was calibrated with an aqueous solution of K3[Fe(CN)6] (E1/2 = +0.458 V vs. NHE). Redox potentials were obtained at 10 mV/s scan rate in the range of −1.3 to +0.8 V.
# [9] = direct redox reaction of the Cu(II) complexes with GSH (UV–vis, anaerobic); format: physicochemical; conditions: Cu(II) complex (25 µM) of the named ligand with GSH (1.25 mM), pH 7.4, anaerobic, 30% (v/v) DMSO/H2O, 25.0 °C
# Description: as §4
# During the calculations, the absorbance (A)−time (t) curves were fitted and analyzed at the λmax of the complex. (A0 − Afinal) × e ^(−a×t) + Afinal equation was used where A0, Afinal and a parameters were refined and accepted at the minimal value of the weighted sum of squared residuals (difference between the measured and calculated absorbance values) at the given wavelength. Then observed rate constants (kobs) of the redox reaction were obtained from the data points of the simulated absorbance–time curves as the slope of the ln(A/A0) versus t plots.
# [10] = system: E. faecalis ATCC 29212; assay: MIC determination; format: cell-based, Enterococcus faecalis; conditions: Gram-positive E. faecalis ATCC 29212; Mueller Hinton Broth
# Description: as §1
# [11] = system: A549, MCF-7, MCF-7 KCR and DU-145 cells; assay: γH2AX immunostaining (DNA double-strand breaks); format: cell-based, human; conditions: 20 µM, 3 h
# Description: In order to determine the degree of DNA damage induced by the treatments, DNA double-strand breaks were visualized by γH2AX immunostaining. For this, 1 × 10^5 cells/well were seeded onto coverslips in 24-well plates. […] Then, cells were fixed with 4% formaldehyde (Molar Chemicals, Halásztelek, Hungary), permeabilized with 0.3% Triton-X-100 (Calbiochem, Merck Millipore, Darmstadt, Germany) and were blocked using 5% bovine serum albumin (BSA) (Sigma-Aldrich, St. Louis, MO, USA). Then, the samples were incubated with anti-γH2AX antibody (Thermo Fisher Scientific, Waltham, MA, USA) in 1:300 dilution followed by Alexa 488 fluorophore-conjugated goat anti-mouse secondary antibody (Abcam, Cambridge, UK) in 1:600 dilution. The fluorescence intensity of the stained samples was detected by an Olympus FV10i confocal microscope.
# [12] = system: A549 cells; assay: DCFDA staining (intracellular ROS); format: cell-based, human; conditions: A549, 20 µM, 6 h
# Description: (§5) DCFDA staining assay was performed to measure the total intracellular ROS level upon treatments. For this, 1 × 10^5 cells/well were seeded onto coverslips (VWR International, Radnor, Pennsylvania, PA, USA) placed in 24-well plates and left to grow. […] After treatments, cells were washed with PBS then incubated for 1 h with 10 μM DCFDA solution. The fluorescence intensity of the samples was assessed by an OLYMPUS BX51 microscope with Olympus DP70 camera and was quantified using ImageJ software.
# [13] = system: DU-145 cells; assay: DCFDA staining (intracellular ROS); format: cell-based, human; conditions: DU-145, 20 µM, 6 h
# Description: as §5
# [14] = system: MCF-7 KCR cells; assay: DCFDA staining (intracellular ROS); format: cell-based, human; conditions: 20 µM, 6 h
# Description: as §5
# [15] = format: physicochemical; conditions: cligand = 20 µM
# Description: An Orion 710A pH-meter equipped with a Metrohm combined electrode (type 6.0234.100) and a Metrohm 665 Dosimat burette were used for the UV–vis titrations at 25.0 ± 0.1 °C. Ionic strength of 0.10 M (KCl) was used to keep the activity coefficients constant. The titrations were performed with carbonate-free KOH solution of known concentration (0.10 M) with 30% (v/v) DMSO content. […] The average water ionization constant (pKw) is 14.54 ± 0.05 in the 30% (v/v) DMSO/H2O mixture. Argon was always passed over the solutions during the titrations. An Agilent Cary 8454 diode array spectrophotometer was used to record the UV–vis spectra at an interval of 200–800 nm. The path length was 2 cm. Spectrophotometric titrations were performed using a 0.1 M KOH titrant solution with 30% (v/v) DMSO on samples with 30% (v/v) DMSO containing HCl, KCl and the ligand at 20 μM concentration in the pH range 2.0–12.5 in the absence or in the presence of 1 or 0.5 equiv. Cu(II) ions. Proton dissociation constants (Ka) of the TSC ligands, the overall stability constants (β) of the Cu(II) complexes and the UV–vis spectra of the individual species were calculated by the computer program PSEQUAD [41] as was done in our previous works.
# [16] = Cu(II) complex (25 µM) with GSH (1.25 mM), pH 7.4, anaerobic; cited from earlier work
# [17] = cited from earlier work
# [18] = system: MCF-7 breast cancer cell line; set-up: method as in doi:10.1039/D0NJ01070G, PMID 34453218, PMID 33951554; conditions: cited from earlier work
# [19] = 30% (v/v) DMSO/H2O, T = 25.0 °C, I = 0.1 M (KCl)
Compound,% Scavenging Effect [1] [%],IC50 [1] [µM],MIC [2] [µM],IC50 [3] [µM],IC50 [4] [µM],IC50 [5] [µM],IC50 [6] [µM],formal potential E’ vs. Ag/AgCl/3M KCl [8],MIC [10] [µM],TEAC (Trolox equivalent antioxidant capacity) [1],DNA double-strand breaks (γH2AX) vs untreated control cells [11],also measured
C[C@]12CC[C@@H]3c4cc(/C=N/N=C(N)[O-])c([O-])cc4CC[C@H]3[C@@H]1CC[C@@H]2O.O.[Cu+2] [Cu(II)-estradiol-SC],8.5,> 50,50,> 20,> 20,> 20,> 20,+0.10 V,>100,–,–,"effect on cell viability (in words) ([3]; up to 20 µM, 24 h): only slightly toxic; effect on cell viability (in words) ([4]; up to 20 µM, 24 h): only slightly toxic; effect on cell viability (in words) ([5]; up to 20 µM, 24 h): neither the estradiol-SC nor the Cu(II)-estradiol-SC complex exhibit any harmful effect; effect on cell viability (in words) ([6]; up to 20 µM, 24 h): neither the estradiol-SC nor the Cu(II)-estradiol-SC complex exhibit any harmful effect; reduction by ascorbic acid (in words) [7]: remarkable spectral changes; kobs [9]: rapid reduction of Cu(II)"
C[C@]12CC[C@@H]3c4cc(/C=N/N=C(N)[S-])c([O-])cc4CC[C@H]3[C@@H]1CC[C@@H]2O.O.[Cu+2] [Cu(II)-estradiol-TSC],90.8,15.7,3.125,10 ± 1.04,13 ± 1.09,> 20,8.4 ± 1.11,+0.31 V,12.5,0.8,None of these treatments caused a higher degree of DNA damage,intracellular amount of ROS vs DMSO control [12]: significantly increased; intracellular amount of ROS vs DMSO control [13]: significantly increased; intracellular amount of ROS vs DMSO control [14]: significantly increased
"CC12CCC3c4cc(C=NNC(N)=S)c(O)cc4CCC3C1CCC2=O (stereo not shown) [estrone-TSC, reference compound]",49.8,17.8,>100,16.7 ± 1.03,> 20,> 20,> 20,–,>100,0.7,None of these treatments caused a higher degree of DNA damage,"pCu5.0 ([15]; calculated at pH 5.0, cCu(II) = 20 µM): 7.7; pCu6.0 ([15]; estimated at pH 6.0, cCu(II) = 20 µM): 9.2; kobs [16]: 0.13 ^3 min^−1; logβ [CuLH−1] [17, 19]: 9.44 ^2; logβ [CuL]+ [17, 19]: 13.18 ^2; pCu7.4 ([17]; pH 7.4, cCu(II) = 20 µM, cligand = 20 µM): 11.9 ^2; IC50 [18]: 6.4 µM"
